target: human sphingosine-1-phosphate receptor 1 (S1P1) (Homo sapiens, UniProt P21453); assay: Inhibition of cAMP production (HTRF cAMP HiRange), S1P1 CHO-K1 cells; type: cell-based; conditions: inhibition of cAMP production; potency; read-out: hS1P1 CAMP pEC50 (converted)
Description: Stable clonal Chinese hamster ovary K1 (CHO-K1) cells co-expressing EA-β-arrestin2 and the human sphingosine-1-phosphate receptor 1 (NM_001400, S1P1) with a C-terminal Prolink™ tag were purchased from DiscoverX corporation (Cat #: 93-0207C2).
Cell lines were cultured in AssayComplete™ Media 6 (DiscoverX Corporation, Cat #: 920018GF2) at 37° C. and 5% CO2 in a humidified CO2 and temperature-controlled incubator. To begin assay plating, cells were washed with Dulbecco's phosphate buffered saline (CellGro, Cat #: 21-031-CV) and lifted from the culturing flask by incubation (37° C., 5 min) with CellStripper (Cellgro, Cat #: 25-056-CI). […] Plated cells were incubated overnight at 37° C. and 5% CO2 in a humidified CO2 and temperature-controlled incubator.
Agonist-promoted G-protein responses were determined by measuring changes in intracellular cAMP using the HTRF® cAMP HiRange kit (CisBio, Cat #: 62AM6PEJ) based on time-resolved fluorescence resonance energy transfer (TR-FRET) technology. […] Following a 30-minute incubation at 37° C. and 5% CO2 in a humidified CO2 and temperature-controlled incubator, the components of the cAMP HiRange kit were added as per the manufacturer's instructions. After an hour incubation at room temperature, plates were analyzed by a BMG PheraStar microplate reader.
These values are normalized to fingolimod, a known agonist of the sphingosine-1-phosphate 1 receptor.

Chain of human sphingosine-1-phosphate receptor 1 (S1P1) (P21453 whole entry): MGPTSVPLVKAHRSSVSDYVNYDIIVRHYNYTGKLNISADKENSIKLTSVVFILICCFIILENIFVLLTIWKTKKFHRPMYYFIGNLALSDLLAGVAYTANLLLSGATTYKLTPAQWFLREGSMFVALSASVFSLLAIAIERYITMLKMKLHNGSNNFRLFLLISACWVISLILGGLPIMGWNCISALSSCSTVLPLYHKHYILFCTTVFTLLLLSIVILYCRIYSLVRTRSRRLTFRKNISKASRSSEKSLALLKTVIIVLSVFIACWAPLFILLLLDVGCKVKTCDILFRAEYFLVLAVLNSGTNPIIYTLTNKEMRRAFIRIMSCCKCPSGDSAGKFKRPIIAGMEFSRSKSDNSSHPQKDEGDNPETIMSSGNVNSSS

| Structure (SMILES) | EC50 |
| --- | --- |
| FC(F)(F)c1cc(-c2noc(-c3ccc4c(c3)nnn4C3CCCC3)n2)ccc1OCc1cccnc1 [Compound 4, 1-cyclopentyl-5-{3-[4-(pyridin-3-ylmethoxy)-3-(trifluoromethyl)phenyl]-1,2,4-oxadiazol-5-yl}-1H-1,2,3-benzotriazole] | > 316 nM |
| Cc1cnc(-c2noc(-c3ccc4c(c3)nnn4C3CCOCC3)n2)cn1 [Compound 6, 5-[3-(5-methylpyrazin-2-yl)-1,2,4-oxadiazol-5-yl]-1-(oxan-4-yl)-1H-1,2,3-benzotriazole] | > 316 nM |
| CC(C)Oc1ccc(-c2nc(-c3ccc4c(c3)nnn4C3CCCC3)no2)cc1C(F)(F)F [Compound 14, 3-(1-cyclopentyl-1H-benzo[d][1,2,3]triazol-5-yl)-5-(4-isopropoxy-3-(trifluoromethyl)phenyl)-1,2,4-oxadiazole] | < 316 nM |
| O=C1CC2(CCC(F)(F)CC2)Oc2ccc(-c3nc(-c4cccnc4)no3)cc21 [Compound 36, 4′,4′-difluoro-6-[3-(pyridin-3-yl)-1,2,4-oxadiazol-5-yl]-3,4-dihydrospiro[1-benzo-pyran-2,1′-cyclohexane]-4-one] | > 316 nM |
| O=C1CC2(CCCCC2)Oc2ccc(-c3nc(-c4cccnc4)no3)cc21 [Compound 41, 6-[3-(pyridin-3-yl)-1,2,4-oxadiazol-5-yl]-3,4-dihydrospiro[1-benzopyran-2,1′-cyclohexane]-4-one] | > 316 nM |
| Cc1oc(-c2ccc3c(c2)nnn3C(C)C)nc1-c1ccc(Cl)cc1 [Compound 50, 5-[4-(4-chlorophenyl)-5-methyl-1,3-oxazol-2-yl]-1-(propan-2-yl)-1H-1,2,3-benzotriazole] | > 316 nM |
| CC(C)n1nnc2cc(-c3nc(-c4ccc(OCc5ccccc5)cc4)no3)ccc21 [Compound 53, 5-{3-[4-(benzyloxy)phenyl]-1,2,4-oxadiazol-5-yl}-1-(propan-2-yl)-1H-1,2,3-benzotriazole] | > 316 nM |
| CC1(C)CCC2(CC1)CC(=O)c1cc(-c3nc(-c4cccnc4)no3)ccc1O2 [Compound 58, 4′,4′-dimethyl-6-[3-(pyridin-3-yl)-1,2,4-oxadiazol-5-yl]-3,4-dihydrospiro[1-benzopyran-2,1′-cyclohexane]-4-one] | > 316 nM |
| CCC1(CC)CC(=O)c2cc(-c3nc(-c4ccc(OC)cc4)no3)ccc2O1 [Compound 65, 2,2-diethyl-6-(3-(4-methoxyphenyl)-1,2,4-oxadiazol-5-yl)chroman-4-one] | > 316 nM |
| CCC1(CC)CC(=O)c2cc(-c3nc(-c4ccc(Cl)cc4)no3)ccc2O1 [Compound 68, 6-[3-(4-chlorophenyl)-1,2,4-oxadiazol-5-yl]-2,2-diethyl-chroman-4-one] | > 316 nM |
| COc1ccc(-c2nc(-c3ccc4c(c3)nnn4C(C)C)no2)cc1 [Compound 69, 3-(1-isopropyl-benzotriazol-5-yl)-5-(4-methoxyphenyl)-1,2,4-oxadiazole] | > 316 nM |
| CC(C)n1nnc2cc(-c3nnc(-c4ccccc4O)s3)ccc21 [Compound 70, 2-{5-[1-(propan-2-yl)-1H-1,2,3-benzotriazol-5-yl]-1,3,4-thiadiazol-2-yl}phenol] | < 316 nM |
| CCC1(CC)CC(=O)c2cc(-c3nc(-c4cccc(OC)c4)no3)ccc2O1 [Compound 71, 2,2-diethyl-6-(3-(3-methoxyphenyl)-1,2,4-oxadiazol-5-yl)chroman-4-one] | > 316 nM |
| CCC1(CC)CC(=O)c2cc(-c3nc(-c4ccc(O)cc4)no3)ccc2O1 [Compound 72, 2,2-diethyl-6-[3-(4-hydroxyphenyl)-1,2,4-oxadiazol-5-yl]chroman-4-one] | < 316 nM |
| Cn1nnc2cc(-c3noc(-c4ccccc4Br)n3)ccc21 [Compound 73, 5-(2-bromophenyl)-3-(1-methyl-1H-benzo[d][1,2,3]triazol-5-yl)-1,2,4-oxadiazole] | > 316 nM |
| FC(F)(F)Oc1ccccc1-c1nc(-c2ccc3c(c2)nnn3C2CCCC2)no1 [Compound 84, 3-(1-cyclopentyl-1H-benzo[d][1,2,3]triazol-5-yl)-5-(2-(trifluoro-methoxy)phenyl)-1,2,4-oxadiazole] | > 316 nM |
| Cc1ccc(-c2noc(-c3ccc4c(c3)nnn4C3CC3)n2)cn1 [Compound 87, 1-cyclopropyl-5-[3-(6-methylpyridin-3-yl)-1,2,4-oxadiazol-5-yl]-1H-1,2,3-benzotriazole] | > 316 nM |
| CC(C)n1nnc2cc(-c3nc(Cc4ccccc4)no3)ccc21 [Compound 88, 5-(3-benzyl-1,2,4-oxadiazol-5-yl)-1-(propan-2-yl)-1H-1,2,3-benzotriazole] | > 316 nM |
| CC(C)n1nnc2cc(-c3noc(C4CCOCC4)n3)ccc21 [Compound 89, 5-[5-(oxan-4-yl)-1,2,4-oxadiazol-3-yl]-1-(propan-2-yl)-1H-1,2,3-benzotriazole] | > 316 nM |
| COc1ccc(-c2nc(-c3ccc4c(c3)nnn4C(C)C)no2)c(C)c1 [Compound 90, 3-(1-isopropyl-1H-benzo[d][1,2,3]triazol-5-yl)-5-(4-methoxy-2-methylphenyl)-1,2,4-oxadiazole] | > 316 nM |
| COc1ccc(-c2noc(-c3ccc4c(c3)nnn4C3CCCC3)n2)c2ccccc12 [Compound 91, 1-cyclopentyl-5-[3-(4-methoxynaphthalen-1-yl)-1,2,4-oxadiazol-5-yl]-1H-1,2,3-benzotriazole] | > 316 nM |
| Cc1ccncc1-c1noc(-c2ccc3c(c2)nnn3C2CC2)n1 [Compound 94, 1-cyclopropyl-5-[3-(4-methylpyridin-3-yl)-1,2,4-oxadiazol-5-yl]-1H-1,2,3-benzotriazole] | > 316 nM |

Other lines, results leading:

| EC50 | Structure (SMILES) |
| --- | --- |
| > 316 nM | CCC1(CC)CC(=O)c2cc(-c3nc(-c4ccncc4)no3)ccc2O1 [Compound 27, 2,2-diethyl-6-[3-(pyridin-4-yl)-1,2,4-oxadiazol-5-yl]-3,4-dihydro-2H-1-benzopyran-4-one] |
| > 316 nM | CCC1(CC)CC(=O)c2cc(-c3nnc(-c4cccnc4)o3)ccc2O1 [Compound 28, 2,2-diethyl-6-(5-(pyridin-3-yl)-1,3,4-oxadiazol-2-yl)chroman-4-one] |
| > 316 nM | CCC1(CC)CC(=O)c2cc(-c3nc(-c4ccnc(OC)c4)no3)ccc2O1 [Compound 38, 2,2-diethyl-6-(3-(2-methoxypyridin-4-yl)-1,2,4-oxadiazol-5-yl)chroman-4-one] |
| < 316 nM | C=CCNc1ccc(-c2nc(-c3ccc4c(c3)CCC(=O)N4)no2)cc1C#N [Compound 61, 2-(allylamino)-5-(3-(2-oxo-1,2,3,4-tetrahydroquinolin-6-yl)-1,2,4-oxadiazol-5-yl)benzonitrile] |
| < 316 nM | CCC1(CC)CC(=O)c2cc(-c3nc(-c4ccccc4C)no3)ccc2O1 [Compound 66, 2,2-diethyl-6-(3-(o-tolyl)-1,2,4-oxadiazol-5-yl)chroman-4-one] |
| > 316 nM | CCC1(CC)CC(=O)c2cc(-c3nnc(-c4ccc5c(c4)nnn5C(C)C)s3)ccc2O1 [Compound 67, 2,2-diethyl-6-(5-(1-isopropyl-1H-benzo[d][1,2,3]triazol-5-yl)-1,3,4-thiadiazol-2-yl)chroman-4-one] |
| < 316 nM | Cc1ccsc1-c1noc(-c2ccc3c(c2)nnn3CC(C)C)n1 [Compound 75, 1-(2-methylpropyl)-5-[3-(3-methylthiophen-2-yl)-1,2,4-oxadiazol-5-yl]-1H-1,2,3-benzotriazole] |
| > 316 nM | CCCn1nnc2cc(-c3nc(-c4cc(C)cc(C)c4)no3)ccc21 [Compound 76, 5-[3-(3,5-dimethyl-phenyl)-1,2,4-oxadiazol-5-yl]-1-propyl-1H-1,2,3-benzotriazole] |
| > 316 nM | CC(C)n1nnc2cc(-c3noc(-c4cnccn4)n3)ccc21 [Compound 78, 3-(1-isopropyl-1H-benzo[d][1,2,3]triazol-5-yl)-5-(pyrazin-2-yl)-1,2,4-oxadiazole] |
| < 316 nM | CC(C)n1nnc2cc(-c3nc(-c4ccccc4)no3)ccc21 [Compound 79, 5-(3-phenyl-1,2,4-oxadiazol-5-yl)-1-(propan-2-yl)-1H-1,2,3-benzotriazole] |
| < 316 nM | FC(F)Oc1ccc(-c2noc(-c3ccc4c(c3)nnn4C3CCCC3)n2)cc1 [Compound 80, 1-cyclopentyl-5-{3-[4-(difluoromethoxy)phenyl]-1,2,4-oxadiazol-5-yl}-1H-1,2,3-benzotriazole] |
| > 316 nM | Clc1ccc(-c2noc(-c3ccc4c(c3)nnn4C3CCOCC3)n2)s1 [Compound 82, 5-[3-(5-chlorothiophen-2-yl)-1,2,4-oxadiazol-5-yl]-1-(oxan-4-yl)-1H-1,2,3-benzotriazole] |
| < 316 nM | Brc1ccccc1-c1noc(-c2ccc3c(c2)nnn3C2CC2)n1 [Compound 83, 5-[3-(2-bromophenyl)-1,2,4-oxadiazol-5-yl]-1-cyclopropyl-1H-1,2,3-benzotriazole] |
| > 316 nM | FC(F)(F)c1cc(-c2noc(-c3ccc4c(c3)nnn4C3CC3)n2)ccc1OCc1ccccc1 [Compound 85, 5-{3-[4-(benzyloxy)-3-(trifluoromethyl)phenyl]-1,2,4-oxadiazol-5-yl}-1-cyclopropyl-1H-1,2,3-benzotriazole] |
| > 316 nM | Cc1cc(-c2nc(-c3ccc4c(c3)nnn4C(C)C)no2)ccn1 [Compound 86, 3-(1-isopropyl-1H-benzo[d][1,2,3]triazol-5-yl)-5-(2-methyl-pyridin-4-yl)-1,2,4-oxadiazole] |

Reference: patent US20230114241A1, “METHODS OF TREATING EPILEPSY USING THE SAME” (Trevena, Inc., priority 2019, published 2023)
